Results: patent US12303592B2, “Formulations for parenteral delivery of compounds and uses thereof” (Wyeth, LLC, priority 2006, dated 2025)

Assay: Stopper compatibility evaluation (Table 14), HPLC Method A; for RRT 0.38: key: BRL=below recordable limit; for RRT 0.49: key: BRL=below recordable limit; for RRT 0.67: key: BRL=below recordable limit; for RRT 0.79: key: BRL=below recordable limit; for RRT 0.89: key: BRL=below recordable limit; for RRT 1.17: key: BRL=below recordable limit; for RRT 1.55: key: BRL=below recordable limit; for RRT 1.89: key: BRL=below recordable limit; for RRT 1.96: key: BRL=below recordable limit; for RRT 2.01: key: BRL=below recordable limit; for RRT 2.26: key: BRL=below recordable limit
Assay type: physicochemical
Set-up: RRT 1.77 / Total / RRT 1.66: unit not given here
Text: Identical preparations prepared as described in Example 4 were stored in parallel in vials having either a 13 mm WPS S2-F451 4432/50 Gray B2-40 Westar RS stopper (West Pharmaceutical Services) or a 13 mm S2-F451 RS D 777-1 RB2 40 stopper (Daikyo Seiko, Ltd) under various conditions. Each of the stoppers has a FluoroTec® fluorocarbon film; the Westar 4432/50 stopper is chlorobutyl rubber, while the RB2-40 RS D 777-1 stopper is bromobutyl rubber. The presence of accumulation of degradant was assessed for each of the configurations (HPLC Method A).

[1] = Control at Room Temperature, 1 hours
[2] = Control at Room Temperature, 4 hours
[3] = RS-D 777-1 B2 40 from Daikyo Seiko Ltd. at 40° C., 1 hours
[4] = RS-D 777-1 B2 40 from Daikyo Seiko Ltd. at 40° C., 4 hours
[5] = RS-D 777-1 B2 40 from Daikyo Seiko Ltd. at Room Temperature, 1 hours
[6] = RS-D 777-1 B2 40 from Daikyo Seiko Ltd. at Room Temperature, 4 hours
[7] = Westar RS stopper (West Pharmaceutical Services) at 40° C., 1 hours
[8] = Westar RS stopper (West Pharmaceutical Services) at 40° C., 4 hours
[9] = Westar RS stopper (West Pharmaceutical Services) at Room Temperature, 1 hours
[10] = Westar RS stopper (West Pharmaceutical Services) at Room Temperature, 4 hours

Compound: C[N+]1(CC2CC2)CC[C@]23c4c5ccc(O)c4O[C@H]2C(=O)CC[C@@]3(O)[C@H]1C5 (some centres unmarked) [MNTX, methylnaltrexone bromide]
- Initial (Control at 40° C., 1 hours): 20.3 mg
- RRT 0.38 (Control at 40° C., 1 hours): BRL
- RRT 0.49 (Control at 40° C., 1 hours): BRL
- RRT 0.67 (Control at 40° C., 1 hours): BRL
- RRT 0.79 (Control at 40° C., 1 hours): BRL
- RRT 0.89 (Control at 40° C., 1 hours): BRL
- RRT 1.17 (Control at 40° C., 1 hours): BRL
- RRT 1.55 (Control at 40° C., 1 hours): BRL
- RRT 1.66 (Control at 40° C., 1 hours): 0.12
- RRT 1.77 (Control at 40° C., 1 hours): BRL
- RRT 1.89 (Control at 40° C., 1 hours): BRL
- RRT 1.96 (Control at 40° C., 1 hours): BRL
- RRT 2.01 (Control at 40° C., 1 hours): BRL
- RRT 2.26 (Control at 40° C., 1 hours): BRL
- Total (Control at 40° C., 1 hours): 0.12
- Initial (Control at 40° C., 4 hours): 20.3 mg
- RRT 0.38 (Control at 40° C., 4 hours): BRL
- RRT 0.49 (Control at 40° C., 4 hours): BRL
- RRT 0.67 (Control at 40° C., 4 hours): BRL
- RRT 0.79 (Control at 40° C., 4 hours): BRL
- RRT 0.89 (Control at 40° C., 4 hours): BRL
- RRT 1.17 (Control at 40° C., 4 hours): BRL
- RRT 1.55 (Control at 40° C., 4 hours): BRL
- RRT 1.66 (Control at 40° C., 4 hours): 0.12
- RRT 1.77 (Control at 40° C., 4 hours): BRL
- RRT 1.89 (Control at 40° C., 4 hours): BRL
- RRT 1.96 (Control at 40° C., 4 hours): BRL
- RRT 2.01 (Control at 40° C., 4 hours): BRL
- RRT 2.26 (Control at 40° C., 4 hours): BRL
- Total (Control at 40° C., 4 hours): 0.12
- Initial [1]: 20.1 mg
- RRT 0.38 [1]: BRL
- RRT 0.49 [1]: BRL
- RRT 0.67 [1]: BRL
- RRT 0.79 [1]: BRL
- RRT 0.89 [1]: BRL
- RRT 1.17 [1]: BRL
- RRT 1.55 [1]: BRL
- RRT 1.66 [1]: 0.12
- RRT 1.77 [1]: BRL
- RRT 1.89 [1]: BRL
- RRT 1.96 [1]: BRL
- RRT 2.01 [1]: BRL
- RRT 2.26 [1]: BRL
- Total [1]: 0.12
- Initial [2]: 20.0 mg
- RRT 0.38 [2]: BRL
- RRT 0.49 [2]: BRL
- RRT 0.67 [2]: BRL
- RRT 0.79 [2]: BRL
- RRT 0.89 [2]: BRL
- RRT 1.17 [2]: BRL
- RRT 1.55 [2]: BRL
- RRT 1.66 [2]: 0.12
- RRT 1.77 [2]: BRL
- RRT 1.89 [2]: BRL
- RRT 1.96 [2]: BRL
- RRT 2.01 [2]: BRL
- RRT 2.26 [2]: BRL
- Total [2]: 0.12
- Initial (Initial): 20.2 mg
- RRT 0.38 (Initial): BRL
- RRT 0.49 (Initial): BRL
- RRT 0.67 (Initial): BRL
- RRT 0.79 (Initial): BRL
- RRT 0.89 (Initial): BRL
- RRT 1.17 (Initial): BRL
- RRT 1.55 (Initial): BRL
- RRT 1.66 (Initial): 0.12
- RRT 1.77 (Initial): BRL
- RRT 1.89 (Initial): BRL
- RRT 1.96 (Initial): BRL
- RRT 2.01 (Initial): BRL
- RRT 2.26 (Initial): BRL
- Total (Initial): 0.12
- Initial [3]: 20.1 mg
- RRT 0.38 [3]: BRL
- RRT 0.49 [3]: BRL
- RRT 0.67 [3]: BRL
- RRT 0.79 [3]: BRL
- RRT 0.89 [3]: BRL
- RRT 1.17 [3]: BRL
- RRT 1.55 [3]: BRL
- RRT 1.66 [3]: 0.12
- RRT 1.77 [3]: 0.05
- RRT 1.89 [3]: BRL
- RRT 1.96 [3]: BRL
- RRT 2.01 [3]: BRL
- RRT 2.26 [3]: BRL
- Total [3]: 0.17
- RRT 0.38 [4]: BRL
- RRT 0.49 [4]: BRL
- RRT 0.67 [4]: BRL
- RRT 0.79 [4]: BRL
- RRT 0.89 [4]: BRL
- RRT 1.17 [4]: BRL
- RRT 1.55 [4]: BRL
- RRT 1.66 [4]: 0.12
- RRT 1.77 [4]: 0.05
- RRT 1.89 [4]: BRL
- RRT 1.96 [4]: BRL
- RRT 2.01 [4]: BRL
- RRT 2.26 [4]: BRL
- Total [4]: 0.17
- Initial [5]: 20.3 mg
- RRT 0.38 [5]: BRL
- RRT 0.49 [5]: BRL
- RRT 0.67 [5]: BRL
- RRT 0.79 [5]: BRL
- RRT 0.89 [5]: BRL
- RRT 1.17 [5]: BRL
- RRT 1.55 [5]: BRL
- RRT 1.66 [5]: 0.12
- RRT 1.77 [5]: BRL
- RRT 1.89 [5]: BRL
- RRT 1.96 [5]: BRL
- RRT 2.01 [5]: BRL
- RRT 2.26 [5]: BRL
- Total [5]: 0.12
- Initial [6]: 20.2 mg
- RRT 0.38 [6]: BRL
- RRT 0.49 [6]: BRL
- RRT 0.67 [6]: BRL
- RRT 0.79 [6]: BRL
- RRT 0.89 [6]: BRL
- RRT 1.17 [6]: BRL
- RRT 1.55 [6]: BRL
- RRT 1.66 [6]: 0.12
- RRT 1.77 [6]: BRL
- RRT 1.89 [6]: BRL
- RRT 1.96 [6]: BRL
- RRT 2.01 [6]: BRL
- RRT 2.26 [6]: BRL
- Total [6]: 0.12
- Initial [7]: 20.1 mg
- RRT 0.38 [7]: BRL
- RRT 0.49 [7]: BRL
- RRT 0.67 [7]: BRL
- RRT 0.79 [7]: BRL
- RRT 0.89 [7]: BRL
- RRT 1.17 [7]: BRL
- RRT 1.55 [7]: BRL
- RRT 1.66 [7]: 0.06
- RRT 1.77 [7]: BRL
- RRT 1.89 [7]: BRL
- RRT 1.96 [7]: BRL
- RRT 2.01 [7]: BRL
- RRT 2.26 [7]: BRL
- Total [7]: 0.06
- Initial [8]: 20.2 mg
- RRT 0.38 [8]: BRL
- RRT 0.49 [8]: BRL
- RRT 0.67 [8]: BRL
- RRT 0.79 [8]: BRL
- RRT 0.89 [8]: BRL
- RRT 1.17 [8]: BRL
- RRT 1.55 [8]: BRL
- RRT 1.66 [8]: 0.06
- RRT 1.77 [8]: 0.05
- RRT 1.89 [8]: BRL
- RRT 1.96 [8]: BRL
- RRT 2.01 [8]: BRL
- RRT 2.26 [8]: BRL
- Total [8]: 0.06
- Initial [9]: 20.3 mg
- RRT 0.38 [9]: BRL
- RRT 0.49 [9]: BRL
- RRT 0.67 [9]: BRL
- RRT 0.79 [9]: BRL
- RRT 0.89 [9]: BRL
- RRT 1.17 [9]: BRL
- RRT 1.55 [9]: BRL
- RRT 1.66 [9]: 0.06
- RRT 1.77 [9]: BRL
- RRT 1.89 [9]: BRL
- RRT 1.96 [9]: BRL
- RRT 2.01 [9]: BRL
- RRT 2.26 [9]: BRL
- Total [9]: 0.06
- Initial [10]: 20.1 mg
- RRT 0.38 [10]: BRL
- RRT 0.49 [10]: BRL
- RRT 0.67 [10]: BRL
- RRT 0.79 [10]: BRL
- RRT 0.89 [10]: BRL
- RRT 1.17 [10]: BRL
- RRT 1.55 [10]: BRL
- RRT 1.66 [10]: 0.06
- RRT 1.77 [10]: BRL
- RRT 1.89 [10]: BRL
- RRT 1.96 [10]: BRL
- RRT 2.01 [10]: BRL
- RRT 2.26 [10]: BRL
- Total [10]: 0.06
